The text below walks through data of EP2326714B1, “METHOD FOR THE PRODUCTION OF A FEED ADDITIVE FOR THE OXYGEN-INDEPENDENT, ENZYMATIC DECOMPOSITION OF MYCOTOXINS, FEED ADDITIVE, AND USE THEREOF” (Erber Aktiengesellschaft, priority 2008, dated 2010).

One series has as its system Absetzferkel. The series is described as follows: Feeding trial with piglets (fumonisin B1 contaminated feed, positive control). The note with it: 4 - 5,5 ppm Fumonisin B1 in feed, no enzyme. It is filed as in vivo, Ferkel (ÖHYB). The text has this: Der Versuch wurde in einem Versuchsstall mit 12 Buchten für jeweils 10 Tiere durchgeführt. Der Stall war ausgestattet mit Spaltenboden, Schalentränkern und einem computergesteuerten Fütterungssystem. Die Automaten waren entlang der Buchtenwände angeordnet. Das Stallklima wurde täglich automatisch aufgezeichnet und die Temperatur nach den Standardempfehlungen zur Ferkelaufzucht eingestellt.
120 gemischt-geschlechtliche Absetzferkel (Alter: ca. 4 Wochen, durchschnittliches Einstellgewicht 8,21 kg) wurden für diesen Versuch eingesetzt. Jedes Ferkel wurde mit einer Ohrmarke versehen und einzeln gewogen. Die 120 Ferkel wurden auf 12 Buchten zufällig verteilt. Alle Ferkel entstammten dem österreichischen Zuchtprogramm ÖHYB (= (Edelschwein x Landrasse) x Pietrain).
Direkt nach dem Absetzen wurden die Ferkel für 2 Tage mit einem Starterfutter gefüttert, nach dieser Eingewöhnungsphase erfolgte die Umstellung auf das Versuchsfutter. Die Fütterung erfolgte 2-phasig: Absetzphase Tag 1 - 14, Aufzuchtphase Tag 15 - 42. Das Versuchsfutter wurde buchtenindividuell über die Spotmix-Fütterungsanlage gemischt und je nach Anzahl der Ferkel, Gewichtsentwicklung und Futterverzehr zweimal täglich trocken zugeteilt. Wasser stand zur Aufnahme ad libitum zur Verfügung. Die 12 Buchten wurden in vier verschiedene Applikationsgruppen zu je drei Wiederholungen geteilt und erhielten die folgenden Einmischungen ins oben beschriebene Futter: […]

Series [1] has as its target T1, Fumonisin-Carboxylesterase FumD, Sequenz ID-Nr. 9 (fumD Gen Sequenz ID-Nr. 8), Sphingopyxis sp. Stamm DSM 16254, his-getaggt, in Pichia pastoris exprimiert (Sphingopyxis macrogoltabida, UniProt D2D3B6).
T1 construct: His tag; made in house; host or cells: Pichia pastoris (secreted, purified from the culture supernatant)
Description: Enzyme kinetics of fumonisin carboxylesterase (Michaelis-Menten, HPLC-MS/MS). The series is classed as biochemical. Particulars: substrate FB1; enzyme 0,33 ng/ml; Tris-Cl pH 8,0; 30 °C. As for the experimental part:
(§1) Das fumD Gen (Sequenz ID-Nr. 8), welches eine Fumonisin-Carboxylesterase codiert, wurde kloniert und in Pichia pastoris unter Verwendung von Standardverfahren exprimiert. Das his-getaggte Enzym wurde rückgewonnen und aus der überstehenden Lösung der Kultur durch Affinitätschromatographie gereinigt. Die Enzymkonzentration wurde bestimmt und die enzymkinetischen Parameter wurden mit sieben unterschiedlichen Substratkonzentrationen im Bereich zwischen 50 µg bis 25 mg FB1 pro Liter und einer Enzymkonzentration von 0,33 ng/ml bestimmt. Die Reaktionen wurden in 20 mM Tris-Cl (pH 8,0) Puffer mit 0,1 mg/ml Rinderserumalbumin gepuffert und bei 30 °C inkubiert. Proben wurden nach 0, 30, 60 120 und 240 Minuten Inkubation genommen und durch HPLC-MS/MS analysiert. Fumonisin B1 (FB1) und hydrolysiertes Fumonisin B1 wurden quantifiziert basierend auf einer Kalibrierung mit den gereinigten Referenzsubstanzen und einem vollständig ^13C markierten, internen FB1 Standard.
(§2) Fig. 2 zeigt die Michaelis-Menten-Kurve für die Transformation von Fumonisin B1 (FB1) durch Fumonisin-Carboxylesterase FumD, welche bei einer Enzymkonzentration von 0,33 ng/ml in Tris-Cl-Puffer (pH 8,0) bestimmt wurde, wobei anfängliche Enzymgeschwindigkeiten gegen die Substratkonzentration aufgetragen wurden. Die Michaelis-Menten-Kurve zeigt einen Abfall bei höheren Substratkonzentrationen, da die Enzymgeschwindigkeit basierend auf dem Produkt, d.h. hydrolysierter FB1-Bildung berechnet wurde. Da hydrolysiertes FB1 aus FB1 in einer zweistufigen Reaktion über partiell hydrolysiertes FB1 mit lediglich einer Tricarballylsäure-Seitenkette, die zurückbehalten wurde, und einer Seitenkette ausgebildet wird, die abgespalten wurde, war die Endproduktbildung bei hohen Substratkonzentrationen verzögert. Die Michaelis-Menten-Konstante KM wurde als 0,90 µmol/l berechnet, was 650 ppb äquivalent ist, und die Umwandlungszahl war 900 pro Sekunde.

Series [2] relates to CCCC[C@@H](C)[C@@H](OC(=O)C[C@@H](CC(=O)O)C(=O)O)[C@H](C[C@@H](C)C[C@H](O)CCCC[C@@H](O)C[C@H](O)[C@H](C)N)OC(=O)C[C@@H](CC(=O)O)C(=O)O. The description is as above. The series is classed as biochemical, Sphingopyxis sp. As for the experimental part: as §1, §2

T1 sequence (D2D3B6 whole entry): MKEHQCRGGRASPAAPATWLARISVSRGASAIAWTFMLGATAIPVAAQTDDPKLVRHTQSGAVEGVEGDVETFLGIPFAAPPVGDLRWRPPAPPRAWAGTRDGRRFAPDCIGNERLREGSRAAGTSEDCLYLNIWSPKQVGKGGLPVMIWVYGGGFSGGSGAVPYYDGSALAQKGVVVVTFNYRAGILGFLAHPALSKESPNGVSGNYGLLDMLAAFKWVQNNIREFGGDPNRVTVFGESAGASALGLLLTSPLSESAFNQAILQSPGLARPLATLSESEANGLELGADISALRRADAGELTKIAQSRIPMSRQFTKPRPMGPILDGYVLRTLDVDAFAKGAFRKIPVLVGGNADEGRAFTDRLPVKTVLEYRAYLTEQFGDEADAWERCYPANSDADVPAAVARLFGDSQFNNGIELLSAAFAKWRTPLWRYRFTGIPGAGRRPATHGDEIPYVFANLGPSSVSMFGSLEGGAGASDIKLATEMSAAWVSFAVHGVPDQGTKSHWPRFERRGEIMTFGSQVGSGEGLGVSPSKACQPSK

`CCCC[C@@H](C)[C@@H](OC(=O)C[C@@H](CC(=O)O)C(=O)O)[C@H](C[C@@H](C)C[C@H](O)CCCC[C@@H](O)C[C@H](O)[C@H](C)N)OC(=O)C[C@@H](CC(=O)O)C(=O)O` [Fumonisin B1] showed an Ausfälle with Absetzferkel (30 piglets, 42 days) of 1. Moreover, the “Endgewicht (Durchschnitt, kg)” value in the series with Absetzferkel (30 piglets, 42 days, negative control 26,82) is recorded as 24,77 kg. Besides, the “respiratorische Probleme” value in the series with Absetzferkel (all other groups appeared healthy) is on record as “bei fast der Hälfte der Tiere respiratorische Probleme beobachtet”. Also, in series [1], the Umwandlungszahl is on record as 900 pro Sekunde.

As to “Fumonisin-Carboxylesterase FumD, Sequenz ID-Nr. 9 (fumD Gen Sequenz ID-Nr. 8), Sphingopyxis sp. Stamm DSM 16254, his-getaggt, in Pichia pastoris exprimiert (Sphingopyxis macrogoltabida)”, the Km in series [2] (other: same KM expressed in ppb, pH 8.0, 30.0 °C) is listed as 650 ppb; in series [2] (other: substrate FB1, 50 µg to 25 mg per litre, enzyme 0,33 ng/ml, 20 mM Tris-Cl pH 8,0, 0,1 mg/ml BSA, 30 °C, rate based on formation of hydrolysed FB1), 0,90 µmol/l.
